According to paper PMC7106896, “Synthesis and biological evaluation of 2-(4-methylsulfonyl phenyl) indole derivatives: multi-target compounds with dual antimicrobial and anti-inflammatory activities” (BMC Chemistry, 2020):
In brackets after ≈: the same amount, converted by molar mass.

Key:
[1] = tested on: C. neoformans var. grubii; assay: Minimal inhibitory concentration measurement; type: cell-based; conditions: Cryptococcus neoformans; read-out: MIC Cn (C. neoformans var. grubii)
C. albicans = assay: Minimal inhibitory concentration measurement; type: cell-based; conditions: Candida albicans; read-out: MIC Ca (C. albicans)
human recombinant COX-2 = assay: In vitro COX inhibition colorimetric assay; type: biochemical; conditions: COX-1 IC50/COX-2 IC50
Ovine COX-1 = molecular target: T1, Ovine COX-1 (Ovis aries, UniProt P05979); assay: In vitro COX inhibition colorimetric assay; type: biochemical
T1 construct: purchased Cayman Chemical, Ann Arbor, MI, USA 760111
T1 sequence (P05979 25-600): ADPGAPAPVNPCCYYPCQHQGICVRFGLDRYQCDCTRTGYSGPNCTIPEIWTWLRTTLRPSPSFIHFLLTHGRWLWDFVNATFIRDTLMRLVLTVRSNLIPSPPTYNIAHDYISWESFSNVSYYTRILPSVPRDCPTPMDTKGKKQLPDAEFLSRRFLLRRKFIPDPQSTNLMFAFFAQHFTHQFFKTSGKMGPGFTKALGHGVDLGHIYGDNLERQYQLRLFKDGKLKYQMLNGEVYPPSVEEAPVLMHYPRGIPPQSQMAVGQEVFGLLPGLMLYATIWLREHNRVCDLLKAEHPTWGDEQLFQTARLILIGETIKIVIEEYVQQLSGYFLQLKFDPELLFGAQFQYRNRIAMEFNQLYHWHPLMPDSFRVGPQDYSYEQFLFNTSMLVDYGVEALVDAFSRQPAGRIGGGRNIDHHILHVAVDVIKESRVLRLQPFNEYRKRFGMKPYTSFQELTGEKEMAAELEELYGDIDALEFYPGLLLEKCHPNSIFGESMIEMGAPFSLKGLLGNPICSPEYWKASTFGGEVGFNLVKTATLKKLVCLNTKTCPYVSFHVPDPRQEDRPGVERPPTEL

P. aeruginosa = assay: Minimal inhibitory concentration measurement; type: cell-based; conditions: Pseudomonas aeruginosa; read-out: MIC Pa (P. aeruginosa)
E. coli = assay: Minimal inhibitory concentration measurement; type: cell-based; conditions: Escherichia coli; read-out: MIC Ec (E. coli)
[2] = Cytotoxicity against human embryonic kidney cell line; type: cell-based; conditions: read-out: CC50 (concentration at 50% cytotoxicity)
Description: (§1) The safety margin for the active compounds to human cells was determined through cytotoxicity against human embryonic kidney cell line and hemolysis of human red blood cells. The tested compounds 7a, 7g, and 7i were tolerated and non-toxic to human cells as the cytotoxic and hemolytic dose was higher than the therapeutic dose (Table 2).

[3] = tested on: carrageenan-induced rat paw edema; assay: Carrageenan-induced rat paw edema assay; type: in vivo; conditions: for Edema thickness (mm) ± SEM: n = 4
Description: Pretreatment of rats with compounds 7a–k, 8a–c, and 9a–c before injection with carrageenan in rat paw which induces inflammation and then the percentage of paw edema reduction was measured after certain hours according to previously reported procedures.

human red blood cells = assay: Hemolysis of human red blood cells; type: cell-based
Description: as §1

A. baumannii = assay: Minimal inhibitory concentration measurement; type: cell-based; conditions: Acinetobacter baumannii; read-out: MIC Ab (A. baumannii)
[4] = tested on: Candida albicans (ATCC 90028); assay: Antifungal screening (CO-ADD), growth inhibition at single concentration; type: cell-based; conditions: ATCC90028, at 32 µg/mL concentration, read-out: growth inhibition % Ca (C. albicans)
Description: (§2) The antimicrobial study was performed by CO-ADD (The Community for Antimicrobial Drug Discovery), funded by the Wellcome Trust (UK) and The University of Queensland (Australia). Evaluation of all synthesized compounds for their antimicrobial activities was done against five pathogenic bacteria, methicillin-resistant Staphylococcus aureus (ATCC 43300) as Gram-positive bacteria, Escherichia coli (ATCC 25922), Klebsiella pneumonia (ATCC 700603), Acinetobacter baumannii (ATCC 19606) and Pseudomonas aeruginosa (ATCC 27853) as Gram-negative bacteria and antifungal activity against two pathogenic fungal strains Candida albicans (ATCC 90028) and Cryptococcus neoformans var. grubii (H99; ATCC 208821) (Table 1).

MRSA = assay: Minimal inhibitory concentration measurement; type: cell-based; conditions: Staphylococcus aureus, read-out: MIC Sa (MRSA)
[5] = tested on: Pseudomonas aeruginosa (ATCC 27853); assay: Antimicrobial screening (CO-ADD), growth inhibition at single concentration; type: cell-based; conditions: ATCC27853, at 32 µg/mL concentration, read-out: growth inhibition % Pa (P. aeruginosa)
Description: as §2

[6] = tested on: Acinetobacter baumannii (ATCC 19606); assay: as above; type: cell-based; conditions: ATCC19606, at 32 µg/mL concentration, read-out: growth inhibition % Ab (A. baumannii)
Description: as §2

[7] = tested on: Klebsiella pneumonia (ATCC 700603); assay: as above; type: cell-based; conditions: Klebsiella pneumoniae, ATCC700603; at 32 µg/mL concentration; read-out: growth inhibition % Kp (K. pneumoniae)
Description: as §2

[8] = tested on: methicillin-resistant Staphylococcus aureus (ATCC 43300); assay: as above; type: cell-based; conditions: ATCC 43300 / MRSA, at 32 µg/mL concentration, read-out: growth inhibition % Sa (MRSA)
Description: as §2

[9] = tested on: Escherichia coli (ATCC 25922); assay: as above; type: cell-based; conditions: ATCC25922, at 32 µg/mL concentration, read-out: growth inhibition % Ec (E. coli)
Description: as §2

[10] = tested on: MRSA bacteria and E. coli, K. pneumoniae, P. aeruginosa, and A. baumannii; assay: Antibacterial screening, result pooled over the five bacteria; type: cell-based; conditions: read-out: growth inhibition, range over MRSA, E. coli, K. pneumoniae, P. aeruginosa and A. baumannii
Description: as §2

melting point [°C]	MIC [1] [µg/mL]	MIC (C. albicans) [µg/mL]	IC50 (Ovine COX-1) [µM]	MIC (P. aeruginosa) [µg/mL]	MIC (E. coli) [µg/mL]	MIC (A. baumannii) [µg/mL]	MIC (MRSA) [µg/mL]	MIC Kp (K. pneumoniae) (K. pneumoniae) [µg/mL]	Structure (SMILES)	Selectivity index (SI) (human recombinant COX-2)	CC50 [2] [µg/mL]	Edema inhibition % ([3]; 1 h) [%]	Edema thickness (mm) ± SEM ([3]; 1 h) [mm]	Edema inhibition % ([3]; 3 h) [%]	Edema thickness (mm) ± SEM ([3]; 3 h) [mm]	Edema inhibition % ([3]; 6 h) [%]	Edema thickness (mm) ± SEM ([3]; 6 h) [mm]	HC10 (concentration at 10% hemolysis) (human red blood cells) [µg/mL]	inhibition at 32 µg/mL [4] [%]	inhibition at 32 µg/mL [5] [%]	other results
204 to 206	> 32	> 32	10.3	4 (≈ 9.82 µM)	≤ 0.25	16 (≈ 39.3 µM)	8 (≈ 19.6 µM)	8 (≈ 19.6 µM)	CS(=O)(=O)c1ccc(-c2[nH]c3ccccc3c2C=NNc2ccc(F)cc2)cc1 [Compound 7a, 3-((2-(4-Fluorophenyl)hydrazono)methyl)-2-(4-(methylsulfonyl)phenyl)-1H-indole]	93.81	> 32	74.1	0.679 ± 0.03	88.7	0.250 ± 0.021	92	0.151 ± 0.007	> 32	6.28	97.8	inhibition at 32 µg/mL [6]: 96.7%; inhibition at 32 µg/mL [7]: 97.6%; inhibition at 32 µg/mL [8]: 95.8%; inhibition at 32 µg/mL [9]: 96.5%; inhibition at 32 µg/mL [10]: 85.8 to 97.8%
166 to 168	> 32	> 32	7.9	1 (≈ 2.4 µM)	≤ 0.25	4 (≈ 9.58 µM)	1 (≈ 2.4 µM)	1 (≈ 2.4 µM)	Cc1ccc(NN=Cc2c(-c3ccc(S(C)(=O)=O)cc3)[nH]c3ccc(C)cc23)cc1 [Compound 7g, 5-Methyl-2-(4-(methylsulfonyl)phenyl)-3-((2-(p-tolyl)hydrazono)methyl)-1H-indole]	39.50	4.2 (≈ 10.1 µM)	58.5	1.088 ± 0.090	72.3	0.618 ± 0.010	67.4	0.618 ± 0.045	> 32	4.88	94.6	inhibition at 32 µg/mL [6]: 85.8%; inhibition at 32 µg/mL [7]: 87.5%; inhibition at 32 µg/mL [8]: 96.2%; inhibition at 32 µg/mL [9]: 86.4%; inhibition at 32 µg/mL [10]: 85.8 to 97.8%
212 to 214	> 32	> 32	13.2	2 (≈ 4.11 µM)	≤ 0.25	4 (≈ 8.22 µM)	2 (≈ 4.11 µM)	2 (≈ 4.11 µM)	CS(=O)(=O)c1ccc(-c2[nH]c3ccc(F)cc3c2/C=N/Nc2ccc(S(N)(=O)=O)cc2)cc1 [Compound 7i, 4-(2-((5-Fluoro-2-(4-(methylsulfonyl)phenyl)-1H-indol-3yl)methylene)hydrazinyl) benzene sulfonamide]	132	2.99 (≈ 6.14 µM)	73.1	0.705 ± 0.047	94.3	0.127 ± 0.009	90.1	0.187 ± 0.015	> 32	15.3	96.9	inhibition at 32 µg/mL [6]: 94.3%; inhibition at 32 µg/mL [7]: 94.4%; inhibition at 32 µg/mL [8]: 95.2%; inhibition at 32 µg/mL [9]: 96.5%; inhibition at 32 µg/mL [10]: 85.8 to 97.8%
